Test results reported in patent US20020107193A1, “Therapeutic uses for IP3 receptor-mediated calcium channel modulators” (priority 2000, published 2002).
Entries after “also recorded” stand apart in the source; their conditions may differ.

Assays:
[1] = system: [Ca^2+]i; assay: Intracellular calcium increase caused by glutamate in neurons; format: cell-based; conditions: XeC treatment; data not shown
From the text: Therefore, all inducers of NFκB tested here have in common the ability to initiate calcium release through ER IP3 receptors, either through increasing intracellular calcium, activating production of IP3, or both.

[2] = system: IP3 receptor; conditions: Gafni et al., 1997; cited from earlier work
[3] = system: CREB; assay: EMSA of CREB binding activity in cultured primary cortical neurons; format: cell-based, rat
Method: (§1) Cerebral cortices were removed from embryonic day 18 Sprague-Dawley rats (Harlan, Indianapolis, Ind.). Cells were dissociated as described previously (Mattson et al., 1995, J. Neurochem. 65:1740-1751.) and were seeded into polyethyleneimine-coated 60 mm culture dishes containing Eagle's Minimum Essential Medium supplemented with 26 mM NaHCO3, 40 mM glucose, 20 mM KCl, 1 mM sodium pyruvate, 10% (v/v) heat-inactivated fetal bovine serum (Sigma, St. Louis, Mo.), and 0.001% gentamycin sulfate. After a 3-5 h incubation period to allow for cell attachment, the medium was replaced with 2 ml of Neurobasal Medium with B27 supplements (GIBCO Life Technologies, Grand Island, N.Y.). Previous observations have shown that greater than 80% of the cells that attach in the first few hours after plating will survive longer than 7 days in Neurobasal Medium with no additional neurotrophic factors. Experimental treatments were performed on 7-to-9-day-old neuronal cultures in which there were approximately 5% contaminating glial cells.
Total cell extracts were prepared as described (Baeuerle and Baltimore, 1988, Cell 53:211-217). Briefly, cells were harvested, washed twice with ice-cold PBS and lysed for 30 min at 4° C. in Totex buffer (20 mM HEPES, pH 7.9, 350 mM NaC1, 20% glycerol, 1% NP-40, 1 mM MgC12, 0.5 mM EDTA, 0.1 mM EGTA, 5 mM DTT, 0.1% PMSF, 1% aprotinin, 4 μg/ml leupeptin). Samples were centrifuged at 14,000× g for 10 min and aliquots of supernatant were collected and stored at −70° C. until taken for assay. The protein content of the extract (supernatant) was measured by Bradford method (BIO-RAD Laboratories, Ercules, Calif., USA). […]
After 20 min at room temperature, reaction products were separated on a 7% non-denaturing polyacrylamide gel. […] Radioactivity of dried gels was detected by exposure to Kodak X-Omat film and images on the developed film were scanned into a computer using a UMAX 1200s scanner. […]
(§2) The possible involvement of endoplasmic reticulum pools of intracellular calcium regulated by IP3 receptors in controlling basal levels of NF-κB was investigated using Xestospongin C (XeC) a specific membrane permeable modulator of IP3-mediated Ca^2+release (Gafni et al., 1997, Neuron 19:723-733; Hu et al., 1999, J. Biol. Chem. 274:33995-33998), and thapsigargin (Tg), a specific inhibitor of ER calcium/ATPase (Thastrup et al., 1990, Proc. Natl. Acad. Sci. USA 87:2466-2470; Davidson and Varhol, 1995, J. Biol. Chem. 270:11731-11734.). Cultured primary cortical neurons were treated with either 1 μM XeC, 100 nM Tg or vehicle for 6 h and protein extracts were analyzed for NF-κB binding activity by EMSA electrophoresis.

[4] = system: NF-κB; assay: EMSA of NF-κB binding activity in cultured primary cortical neurons; format: cell-based, rat
Method: as §1, with “Previous observations have shown that greater than 80% of the cells that attach in the first few hours after plating will survive longer than 7 days in Neurobasal Medium with no additional neurotrophic factors.” left out
Total cell extracts were prepared as described (Baeuerle and Baltimore, 1988, Cell 53:211-217). Briefly, cells were harvested, washed twice with ice-cold PBS and lysed for 30 min at 4° C. in Totex buffer (20 mM HEPES, pH 7.9, 350 mM NaC1, 20% glycerol, 1% NP-40, 1 mM MgC12, 0.5 mM EDTA, 0.1 mM EGTA, 5 mM DTT, 0.1% PMSF, 1% aprotinin, 4 μg/ml leupeptin). Samples were centrifuged at 14,000× g for 10 min and aliquots of supernatant were collected and stored at −70° C. until taken for assay. The protein content of the extract (supernatant) was measured by Bradford method (BIO-RAD Laboratories, Ercules, Calif., USA).
After 20 min at room temperature, reaction products were separated on a 7% non-denaturing polyacrylamide gel. Competition experiments were performed by incubating extracts with labeled oligonucleotide probe in the presence of 100-fold molar excess unlabeled NF-KB or CREB oligonucleotide. To characterize the NF-KB complexes, supershift assays were performed. Extracts were preincubated for 45 min at room temperature with antibodies recognizing either p50 or p65 sub-units of NF-κB (Santa Cruz Biotechnology, Santa Cruz, Calif.) or c-Fos (Oncogene Research Products, Cambridge, Mass.). The mixtures were further incubated with ^32P-labeled probe and resolved as described above. Radioactivity of dried gels was detected by exposure to Kodak X-Omat film and images on the developed film were scanned into a computer using a UMAX 1200s scanner. Densitometry was performed using Scion Image software (Scion Inc., Frederick, Md.). Paint Shop Pro software (JASC Inc. Minneapolis, Minn.) was used for preparation of the final figures.
as §2

Q: For `C1CCC[C@H]2CCCN3CC[C@@H](CCCCCC[C@@H]4CCCN5CC[C@@H](CC1)O[C@@H]45)O[C@@H]23` [XeC, Xestospongin C], which “increase in [Ca^2+]i caused by glutamate” value [1] is on record?
A: Its value is “did not erase the increase”.

Q: And the “block of IP3-mediated calcium release” value [2]?
A: Its value is “potent blockers”.

Q: What about the “binding activity of CREB, agent alone” value ([3]; cortical neurons, XeC 30 min pretreatment, 100 ng/ml TNFα 6 h, FIG. 2a) of the same compound?
A: The value was “neither TNFα nor XeC alone affected the binding activity of CREB”.

Q: And the CREB binding activity ([3]; cultured primary cortical neurons, 6 h, 1 μM XeC or 100 nM Tg, data not shown)?
A: The CREB binding activity was “slightly augmented CREB binding activity; however, this was not statistically significant”.

Q: And the “effect on TNFα-induced NF-κB activation” value ([4]; 1 μM XeC 30 min prior to 100 ng/ml TNFα for 6 h)?
A: The value was “completely abolished; also recorded: significantly inhibited”.

Q: What about the “effect on thapsigargin-induced elevation in NF-κB binding” value ([4]; 1 μM XeC pretreatment, 100 nM Tg, 6 h) of the same compound?
A: The value was “completely abolished the elevation”.

Q: And the “effect on glutamate-induced elevation in NF-κB binding” value ([4]; 1 μM XeC pretreatment, 20 μM glutamate, 6 h)?
A: Its value is “completely abolished the elevation; also recorded: NF-κB binding below that of control; also recorded: totally abolish this induction”.

Q: And the “basal NF-κB binding activity relative to control levels” value ([4]; cultured primary cortical neurons, 6 h, 1 μM XeC or 100 nM Tg, EMSA)?
A: Its value is “statistically significant (p<0.05) reduction; also recorded: can inhibit basal levels of NF-κB binding”.
